Structures can show the parent of a compound that is named as a salt.
What was measured:
human spermatozoa [1] = assay: acrosome-reacted (PNA+) sperm after agonist cocktail, percent change vs DMSO (capacitating); higher = more of the measured sperm population than DMSO, for viability, fewer PI-positive (dead) cells than DMSO; settings: incubation time: 3h, capacitating + agonist cocktail 1h
human spermatozoa [2] = assay: progressively motile sperm, percent change vs DMSO (capacitating); higher = more of the measured sperm population than DMSO, for viability, fewer PI-positive (dead) cells than DMSO; settings: incubation time: 30min incubation
HeLa [3] = assay: Cell Painting percent induction (share of features beyond 2 z-scores vs DMSO); higher = more features changed / larger toxic effect; extreme values may be limits of the assay; settings: incubation time: 24h incubation
human spermatozoa [4] = assay: progressively motile sperm, percent change vs DMSO (non-capacitating); higher = more of the measured sperm population than DMSO, for viability, fewer PI-positive (dead) cells than DMSO; extreme values may be limits of the assay
human spermatozoa [5] = assay: change in acrosome-reacted (PNA+) sperm vs DMSO, no agonist (capacitating); higher = more of the measured sperm population than DMSO, for viability, fewer PI-positive (dead) cells than DMSO; settings: incubation time: 3h
HepG2 = HepG2 toxicity (resazurin), effect normalised to DMSO (DMSO = 0); higher = more features changed / larger toxic effect; settings: incubation time: 70h incubation
HeLa [6] = assay: HeLa toxicity: nuclei-count effect normalised to DMSO (DMSO = 0); higher = more features changed / larger toxic effect; settings: incubation time: 24h incubation
human spermatozoa [7] = assay: total motile sperm, percent change vs DMSO (non-capacitating); higher = more of the measured sperm population than DMSO, for viability, fewer PI-positive (dead) cells than DMSO
human spermatozoa [8] = assay: hyperactivated motile sperm, percent change vs DMSO (capacitating); higher = more of the measured sperm population than DMSO, for viability, fewer PI-positive (dead) cells than DMSO; settings: incubation time: 30min incubation
human spermatozoa [9] = assay: viability fold change, 1 - (PI-positive fraction / DMSO median); higher = more of the measured sperm population than DMSO, for viability, fewer PI-positive (dead) cells than DMSO; settings: incubation time: 3h, non-capacitating
[10] = incubation time: 10min incubation, 9.99 µM
[11] = incubation time: 10min incubation, 29.9 µM
[12] = incubation time: 3h incubation, 9.99 µM
[13] = incubation time: 3h incubation, 29.9 µM
[14] = incubation time: 6h incubation, 9.99 µM
[15] = incubation time: 6h incubation, 29.9 µM
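Wherever progressively motile sperm, percent change vs DMSO (non-capacitating) is given: pooled live human sperm from at least 3 donors, tracked by automated microscopy in 0.5 s time-lapse movies, compounds at 10 and 30 µM, versus median of 16 DMSO wells per plate.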
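Wherever total motile sperm, percent change vs DMSO (non-capacitating) is given: sperm pooled from at least 3 donors, tracked in 0.5 s time-lapse movies by automated microscopy after 10 min, 3 h or 6 h with compound at 10 or 30 µM.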

Compound | acrosome-reacted (human spermatozoa [1]; 9.99 µM) [%] | acrosome-reacted (human spermatozoa [1]; 29.9 µM) [%] | progressively motile sperm (human spermatozoa [2]; 9.99 µM) [%] | progressively motile sperm (human spermatozoa [2]; 29.9 µM) [%] | Cell Painting percent induction (HeLa [3]; 9.99 µM) [%] | Cell Painting percent induction (HeLa [3]; 29.9 µM) [%] | progressively motile sperm (human spermatozoa [4]; [10]) [%] | progressively motile sperm (human spermatozoa [4]; [11]) [%] | progressively motile sperm (human spermatozoa [4]; [12]) [%] | progressively motile sperm (human spermatozoa [4]; [13]) [%] | progressively motile sperm (human spermatozoa [4]; [14]) [%] | progressively motile sperm (human spermatozoa [4]; [15]) [%] | change in acrosome-reacted (human spermatozoa [5]; 9.99 µM) [%] | change in acrosome-reacted (human spermatozoa [5]; 29.9 µM) [%] | HepG2 toxicity (HepG2; 10 µM) [%] | HepG2 toxicity (HepG2; 30 µM) [%] | HeLa toxicity: nuclei-count effect normalised (HeLa [6]; 9.99 µM) [%] | HeLa toxicity: nuclei-count effect normalised (HeLa [6]; 29.9 µM) [%] | total motile sperm (human spermatozoa [7]; [10]) [%] | total motile sperm (human spermatozoa [7]; [11]) [%] | total motile sperm (human spermatozoa [7]; [12]) [%] | total motile sperm (human spermatozoa [7]; [13]) [%] | total motile sperm (human spermatozoa [7]; [14]) [%] | total motile sperm (human spermatozoa [7]; [15]) [%] | hyperactivated motile sperm (human spermatozoa [8]; 9.99 µM) [%] | hyperactivated motile sperm (human spermatozoa [8]; 29.9 µM) [%] | viability fold change (human spermatozoa [9]; 9.99 µM) | viability fold change (human spermatozoa [9]; 29.9 µM)
CCCCC(CC)C/N=C(\N)N/C(N)=N/CCCCCC/N=C(\N)N/C(N)=N/CC(CC)CCCC (configuration not stated) [Alexidine dihydrochloride] | 148 | 214 | -95.3 | -100 | 4.11 | 13.2 | -63.3 | -99.9 | -99.9 | -100 | -100 | -100 | 65.4 | 86.5 | 89.8 | 103 | 82.5 | 57.3 | -25.4 | -91.3 | -92.5 | -89.6 | -92.8 | -89.2 | -81.6 | -86.5 | -2.59 | -3.31
CCCCCCCCOc1ccc(-c2noc([C@@H]3CCCN3C(=N)N)n2)cc1C(F)(F)F | 114 | 138 | -6.84 | -99.7 | 15.4 | 6.63 | 19.2 | -91.9 | -94.9 | -100 | -99.9 | -99.9 | 46.2 | 70.7 | 8.34 | 102 | 35.1 | 82.8 | 0.514 | -52.9 | -72.1 | -92.8 | -86.2 | -93.7 | -41.8 | -89.2 | -1.83 | -2.7
[O]=[V]([O-])([O-])[O-] [Sodium orthovanadate] | 9.33 | 1.67 | 5.23 | 3.21 | 0 | 0 | 7.34 | 4.35 | 13.8 | 7.93 | 20 | 10.3 | 0.239 | 0.284 | -3.1 | 8.27 | -6.61 | -4.07 | 2.91 | 0.876 | 8.66 | -0.441 | 8.42 | -0.812 | 14.9 | 5.6 | -0.276 | -0.0929
CC(C)(O)c1ccn2c(-c3ccc(F)c(-c4ccc(F)cc4C#N)c3)cnc2c1F [TP 003] | 100 | 116 | 12.3 | 2.2 | 0.324 | 2.31 | 41.3 | 34.6 | 73.6 | 57.9 | 96 | 62.3 | 1.9 | 2.84 | 3.92 | 16.1 | 15.4 | 27.2 | 1.87 | -0.967 | -7.62 | -8.89 | -7.79 | -10.8 | 59.6 | -58 | -1.77 | -1.42
CC(C)Cn1cnc2c(N)nc3ccccc3c21 [Imiquimod] | 34.9 | 56.5 | 7.22 | 11.8 | 0.612 | 0 | 24.4 | 32.7 | 49.3 | 51.2 | 58.8 | 51.3 | 1.03 | 1.32 | 10.2 | -1.53 | 6.28 | 5.01 | -0.548 | 1.37 | -4.33 | -4.6 | -4.54 | -9.83 | 65.2 | 131 | -0.324 | -0.489
Nc1nc(Cl)nc2c1ncn2[C@@H]1O[C@H](CO)[C@@H](O)[C@@H]1F [Clofarabine] | 87.1 | 104 | 10.5 | 12.9 | 0.396 | 0.54 | 21.7 | 19.3 | 50.7 | 35.6 | 46.2 | 29.9 | 1.07 | 0.866 | 12.2 | 19.6 | 47.6 | 47.5 | -6.85 | -9.16 | -17.7 | -20.8 | -25.1 | -28.8 | 206 | 262 | -0.45 | -0.516
COC(=O)c1c(C)[nH]c(C)c1C(=O)c1ccccc1Cc1ccccc1 | 25.4 | 48.8 | 13.4 | 14.7 | 0 | 0.18 | -1.68 | -2.66 | 4.27 | -4.02 | 12.6 | 4.09 | 0.874 | 0.596 | -4.33 | 10.6 | 4.01 | 0.735 | 0.541 | -1.51 | -6.62 | -4.77 | -5.32 | -5.3 | 21.1 | -0.915 | 0.0191 | -0.102
CCOc1ccccc1OCCN[C@H](C)Cc1ccc(OC)c(S(N)(=O)=O)c1 [Tamsulosin] | 8.46 | 14.3 | 7.35 | 14.8 | 0 | 0 | 3.42 | 13.4 | 17.3 | 20.7 | 23.6 | 26.5 | 0.811 | 1.12 | -2.54 | 9.76 | -2.07 | 2.87 | 4.75 | 4.64 | 1.09 | 4.59 | 2.47 | 0.434 | 26 | 16.1 | -0.468 | -0.658
COc1cc2nc(N(C)CCCNC(=O)C3CCCO3)nc(N)c2cc1OC (configuration not stated) [Alfuzosin] | -3.12 | 0.779 | 16 | 9.67 | 0 | 0 | 0.477 | -1.83 | 14.5 | 16.4 | 16.7 | 20.9 | -0.201 | -0.552 | -1.03 | 4.29 | 5.08 | 0.668 | -4.58 | -4.17 | -0.419 | -6.01 | -5.29 | -6.7 | 37.3 | 5.32 | -0.036 | -0.0945

— the supplement of paper PMC10878532, “Sperm Toolbox—A selection of small molecules to study human spermatozoa” (PLOS ONE, 2024)
